Laboratory results published in the supplement of paper PMC11208160.

Assay: recombinant barcode read abundance after kanamycin selection (control-corrected) (log10(CPM+1)); higher = more efficient recombination; sequences stand for … in AGTGCAGAGAAAATCGGCCAGTTTTCTCTGCCTGCAGTCCGCATGCCGT…AGATTTATGCAGCGGACTGCCTTTCTCCCAAAGTGATAAACCGGACAGTATCATGGACCGGTTTTCCCGGTAATCCGTATTTGCAAGGTTGGTTTCACT; site = the 11-nt target
Summary of the method: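 Oligos holding a promoter, target, barcode and the J23119-driven first 104 bases of the bridge RNA were Gibson-cloned into a vector that supplied the other 73 bp plus a T7-inducible recombinase. This library was co-electroporated with a donor plasmid into E. coli. Two replicates went on chloramphenicol/ampicillin LB agar (control) and two on chloramphenicol/ampicillin/kanamycin with 0.1 mM IPTG. Recombination efficiency is read from averaged, control-corrected barcode counts per million at recombinant junctions, reported as log10(CPM+1).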
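Note: IS621 recombinase and bridge RNA in Escherichia coli cells.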

Sequence | recombinant barcode read abundance (log10)
TAGAACTCTTGGGTTCTAACCTGTTGCCT (site TAGAACTCTAG) | 0.914
TAGAACTCTTGGGTTCTAACCTGTTGCCT (site TAGAACTCTCG) | 0.0641
TAGAACTCTTGGGTTCTAACCTGTTGCCT (site TAGAACTCTGG) | 0.156
TAGAACTCTTGGGTTCTAACCTGTTGCCT (site TAGAACTCTTG) | 0.119
TAGAACTCTTGGGTTCTAACCTGTTGCGT (site TAGAACTCTAC) | 1.07
TAGAACTCTTGGGTTCTAACCTGTTGCGT (site TAGAGCTCTAC) | 0.119
TAGAAGACTTGGGTTCTAACCTGTTGCTC (site TAGAAGACTAA) | 0.216
TAGAAGACTTGGGTTCTAACCTGTTGCTC (site TAGAAGACTCA) | 0.178
TAGAAGACTTGGGTTCTAACCTGTTGCTC (site TAGAAGACTGA) | 1.44
TAGAAGACTTGGGTTCTAACCTGTTGCTC (site TAGAAGACTTA) | 0.0266
TAGAAGTCTTGGGTTCTAACCTGTTGCAG (site TAGAAGTCTCT) | 1.9
TAGAAGTCTTGGGTTCTAACCTGTTGCAG (site TAGATGTCTCC) | 0.0783
TAGAATCCTTGGGTTCTAACCTGTTGCAG (site TAGAATCCTAT) | 0.0897
TAGAATCCTTGGGTTCTAACCTGTTGCAG (site TAGAATCCTCT) | 0.718
TAGAATCCTTGGGTTCTAACCTGTTGCAG (site TAGAATCCTGT) | 0.0644
TAGAATCCTTGGGTTCTAACCTGTTGCAG (site TAGAATCCTTT) | 0.072
TAGACATCTTGGGTTCTAACCTGTTGCGT (site CGCTTTACTCG) | 0.125
TAGACATCTTGGGTTCTAACCTGTTGCGT (site TAGACATCTAC) | 1.65
TAGACTACTTGGGTTCTAACCTGTTGCTA (site TAGACTACTAA) | 0.198
TAGACTACTTGGGTTCTAACCTGTTGCTA (site TAGACTACTCA) | 0.111
TAGACTACTTGGGTTCTAACCTGTTGCTA (site TAGACTACTGA) | 0.0863
TAGACTACTTGGGTTCTAACCTGTTGCTA (site TAGACTACTTA) | 0.268

Sequence | recombinant barcode read abundance (log10)
TAGACTCCTTGGGTTCTAACCTGTTGCCA (site ACTTGAGCTAT) | 0.336
TAGACTCCTTGGGTTCTAACCTGTTGCCA (site TAGACTCCTTG) | 0.182
TAGAGCTCTTGGGTTCTAACCTGTTGCGT (site TAGAACTCTAC) | 0.246
TAGAGCTCTTGGGTTCTAACCTGTTGCGT (site TAGAGCTCTAC) | 1.25
TAGATGTCTTGGGTTCTAACCTGTTGCGG (site TAGAAGTCTCT) | 0.0755
TAGATGTCTTGGGTTCTAACCTGTTGCGG (site TAGATGTCTCC) | 2.43
TAGCAATCTTGGGTTCTAACCTGTTGCTA (site GTCGTTACTAG) | 0.0938
TAGCAATCTTGGGTTCTAACCTGTTGCTA (site TAGCAATCTTA) | 0.0837
TAGCACACTTGGGTTCTAACCTGTTGCGG (site TAGCACACTCC) | 1.21
TAGCACACTTGGGTTCTAACCTGTTGCGG (site TAGCCCACTCC) | 0.112
TAGCACACTTGGGTTCTAACCTGTTGCGG (site TAGCGCACTCC) | 0.291
TAGCACACTTGGGTTCTAACCTGTTGCGG (site TAGCTCACTCC) | 0.00842
TAGCATACTTGGGTTCTAACCTGTTGCCA (site TAGCATACTAG) | 0.445
TAGCATACTTGGGTTCTAACCTGTTGCCA (site TAGCATACTCG) | 0.0183
TAGCATACTTGGGTTCTAACCTGTTGCCA (site TAGCATACTGG) | 0.359
TAGCATACTTGGGTTCTAACCTGTTGCCA (site TAGCATACTTG) | 0.529
TAGCCATCTTGGGTTCTAACCTGTTGCCT (site TAACCATCTAG) | 0.0247
TAGCCATCTTGGGTTCTAACCTGTTGCCT (site TACCCATCTAG) | 0.166
TAGCCATCTTGGGTTCTAACCTGTTGCCT (site TAGCCATCTAG) | 0.121
TAGCCATCTTGGGTTCTAACCTGTTGCCT (site TATCCATCTAG) | 0.0171
TAGCCCTCTTGGGTTCTAACCTGTTGCAA (site ACAGTACCTCA) | 0.202
TAGCCCTCTTGGGTTCTAACCTGTTGCAA (site TAGCCCTCTTT) | 2.02

Sequence | recombinant barcode read abundance (log10)
TAGCCCTCTTGGGTTCTAACCTGTTGCCG (site TAGCCCTCTCG) | 1.82
TAGCCCTCTTGGGTTCTAACCTGTTGCCG (site TAGTCCGCTCG) | 0.023
TAGCCGGCTTGGGTTCTAACCTGTTGCAG (site GAGCCGACTCT) | 0.385
TAGCCGGCTTGGGTTCTAACCTGTTGCAG (site TAGCCGGCTCT) | 1.06
TAGCCGGCTTGGGTTCTAACCTGTTGCCT (site TAGCCGGCTAA) | 0.264
TAGCCGGCTTGGGTTCTAACCTGTTGCCT (site TAGCCGGCTAG) | 0.907
TAGCCGGCTTGGGTTCTAACCTGTTGCTT (site TAGCCGGCTAA) | 0.358
TAGCCGGCTTGGGTTCTAACCTGTTGCTT (site TAGCCGGCTAG) | 0.386
TAGCCTTCTTGGGTTCTAACCTGTTGCCT (site TAGCCTTCTAG) | 0.572
TAGCCTTCTTGGGTTCTAACCTGTTGCCT (site TCGCCTTCTAG) | 0.204
TAGCCTTCTTGGGTTCTAACCTGTTGCCT (site TGGCCTTCTAG) | 0.0192
TAGCCTTCTTGGGTTCTAACCTGTTGCCT (site TTGCCTTCTAG) | 0.0659
TAGCGGACTTGGGTTCTAACCTGTTGCAT (site TAGCGGACTAT) | 0.992
TAGCGGACTTGGGTTCTAACCTGTTGCAT (site TAGCGGTCTAG) | 0.0826
TAGCGGTCTTGGGTTCTAACCTGTTGCCT (site TAGCGGACTAT) | 0.0756
TAGCGGTCTTGGGTTCTAACCTGTTGCCT (site TAGCGGTCTAG) | 1.46
TAGCGTACTTGGGTTCTAACCTGTTGCGG (site TAGCGTACTAC) | 0.107
TAGCGTACTTGGGTTCTAACCTGTTGCGG (site TAGCGTACTCC) | 1.79
TAGCTCACTTGGGTTCTAACCTGTTGCGG (site TAGCACACTCC) | 0.0805
TAGCTCACTTGGGTTCTAACCTGTTGCGG (site TAGCCCACTCC) | 0.581
TAGCTCACTTGGGTTCTAACCTGTTGCGG (site TAGCGCACTCC) | 0.791
TAGCTCACTTGGGTTCTAACCTGTTGCGG (site TAGCTCACTCC) | 1.3

Sequence | recombinant barcode read abundance (log10)
TAGCTCCCTTGGGTTCTAACCTGTTGCCG (site TAGCTCCCTAG) | 0.475
TAGCTCCCTTGGGTTCTAACCTGTTGCCG (site TAGCTCCCTCG) | 1.43
TAGCTCCCTTGGGTTCTAACCTGTTGCCG (site TAGCTCCCTGG) | 0.238
TAGCTCCCTTGGGTTCTAACCTGTTGCCG (site TAGCTCCCTTG) | 0.379
TAGCTCCCTTGGGTTCTAACCTGTTGCCT (site TAGCTCCCTAG) | 1.21
TAGCTCCCTTGGGTTCTAACCTGTTGCCT (site TAGCTCCCTCG) | 0.0637
TAGCTCCCTTGGGTTCTAACCTGTTGCCT (site TAGCTCCCTGG) | 0.105
TAGCTCCCTTGGGTTCTAACCTGTTGCCT (site TAGCTCCCTTG) | 0.016
TAGCTGACTTGGGTTCTAACCTGTTGCCT (site TAGCAGACTAG) | 1.14
TAGCTGACTTGGGTTCTAACCTGTTGCCT (site TAGCCGACTAG) | 0.624
TAGCTGACTTGGGTTCTAACCTGTTGCCT (site TAGCGGACTAG) | 0.194
TAGCTGACTTGGGTTCTAACCTGTTGCCT (site TAGCTGACTAG) | 1.28
TAGGAACCTTGGGTTCTAACCTGTTGCGT (site GAGGAGCCTAC) | 0.022
TAGGAACCTTGGGTTCTAACCTGTTGCGT (site TAGGAACCTAC) | 3.35
TAGGAAGCTTGGGTTCTAACCTGTTGCGA (site TAGAAAGCTTG) | 0.108
TAGGAAGCTTGGGTTCTAACCTGTTGCGA (site TAGGAAGCTTC) | 2.34
TAGGACTCTTGGGTTCTAACCTGTTGCAT (site CCTCGTCCTGG) | 0.0204
TAGGACTCTTGGGTTCTAACCTGTTGCAT (site TAGGACTCTAT) | 1.79
TAGGAGACTTGGGTTCTAACCTGTTGCCC (site CAGGAGACTAG) | 0.0355
TAGGAGACTTGGGTTCTAACCTGTTGCCC (site TAGGAGACTGG) | 1.99
